In patent publication US20260355165A1, “2,3,4,9-TETRAHYDRO-1H-PYRIDO[3,4-B]INDOLE DERIVATIVES AS ESTROGEN RECEPTOR MODULATORS FOR THE TREATMENT OF CANCER” (Olema Pharmaceuticals, Inc., priority 2022, published 2026):

Biological target: T1, estrogen receptor (Homo sapiens, UniProt P03372)
T1 construct: endogenous in cells; host or cells: ECC-1 cells
T1 sequence (P03372 1-595): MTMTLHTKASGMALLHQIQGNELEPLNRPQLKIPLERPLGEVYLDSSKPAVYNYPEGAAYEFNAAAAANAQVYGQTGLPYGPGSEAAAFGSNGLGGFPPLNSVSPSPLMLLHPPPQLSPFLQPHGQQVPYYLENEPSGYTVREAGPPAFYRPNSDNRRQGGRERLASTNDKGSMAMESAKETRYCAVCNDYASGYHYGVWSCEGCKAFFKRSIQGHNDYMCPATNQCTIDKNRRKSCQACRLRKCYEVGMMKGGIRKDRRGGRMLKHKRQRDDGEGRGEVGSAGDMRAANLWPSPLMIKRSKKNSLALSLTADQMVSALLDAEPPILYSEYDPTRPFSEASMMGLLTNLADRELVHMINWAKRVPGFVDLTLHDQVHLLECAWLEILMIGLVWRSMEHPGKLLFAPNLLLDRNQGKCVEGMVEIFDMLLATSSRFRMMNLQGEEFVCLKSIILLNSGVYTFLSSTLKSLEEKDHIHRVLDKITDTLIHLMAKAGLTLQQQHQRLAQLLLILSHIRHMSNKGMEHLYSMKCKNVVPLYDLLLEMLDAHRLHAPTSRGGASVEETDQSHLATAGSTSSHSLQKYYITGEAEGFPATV
Assay: AP assay (alkaline phosphatase activity in ECC-1 cells), agonist mode (absence of E2) and antagonist mode (presence of 500 pM E2)
Format: cell-based
Conditions: 3 days, AP activity normalized to 500 pM E2 alone, agonist and antagonist mode combined
Protocol: ECC-1 cells were trypsinized and resuspended in hormone-depleted media and plated at a density of 15 k cells per well into a 96-well plate for at least 4 hours. Cells were treated with test compounds in the absence of E2 (for agonist mode) or in the presence of 500 pM E2 (for antagonist mode) for 3 days and plates were subsequently frozen at −80 °C. Thawed plates were incubated with a chromogenic substrate of AP, p-nitrophenyl phosphate (Thermo Fisher Scientific), for 40 minutes at 42 °C, and absorbances were read at 405 nm. AP activity was normalized to the activity of 500 pM E2 alone.
The compound numbers correspond to the compound numbers of Table 1 and 2. Compounds having an activity designated as “+” provided estrogen receptor agonism having (i) at least 80% increase in the E2-normalized signal in the AP assay (agonist mode) and (ii) no more than 80% reduction in the E2-normalized signal in the AP assay (antagonist mode). Compounds having an activity designated as “++” provided estrogen receptor antagonism having (i) between 10% and 80% increase in the E2-normalized signal in the AP assay (agonist mode) and (ii) between 10% and 80% reduction in the E2-normalized signal in the AP assay (antagonist mode).

C[C@@H]1Cc2c([nH]c3ccccc23)[C@@H](c2ccc3[nH]c(CN4CC(C(F)F)C4)cc3c2)N1CC(C)(C)F [Compound I-100, (1R,3R)-1-[2-[[3-(difluoromethyl)azetidin-1-yl]methyl]-1H-indol-5-yl]-2-(2-fluoro-2-methyl-propyl)-3-methyl-1,3,4,9-tetrahydropyrido[3,4-b]indole]
Activity (estrogen receptor modulation, e.g., agonism and antagonism): ++ (estrogen receptor antagonism having (i) between 10% and 80% increase in the E2-normalized signal in the AP assay (agonist mode) and (ii) between 10% and 80% reduction in the E2-normalized signal in the AP assay (antagonist mode))

CCCN(C)Cc1ccc2c([C@@H]3c4[nH]c5ccccc5c4C[C@@H](C)N3CC(C)(C)F)n[nH]c2c1 [Compound I-13, N-[[3-[(1S,3R)-2-(2-fluoro-2-methyl-propyl)-3-methyl-1,3,4,9-tetrahydropyrido[3,4-b]indol-1-yl]-1H-indazol-6-yl]methyl]-N-methyl-propan-1-amine]
Activity (estrogen receptor modulation, e.g., agonism and antagonism): + (estrogen receptor agonism having (i) at least 80% increase in the E2-normalized signal in the AP assay (agonist mode) and (ii) no more than 80% reduction in the E2-normalized signal in the AP assay (antagonist mode))

C[C@@H]1Cc2c([nH]c3ccccc23)[C@@H](c2ccc3[nH]c(CO)cc3c2)N1CC(C)(C)F [Compound I-93, [5-[(1R,3R)-2-(2-fluoro-2-methyl-propyl)-3-methyl-1,3,4,9-tetrahydropyrido[3,4-b]indol-1-yl]-1H-indol-2-yl]methanol]
Activity (estrogen receptor modulation, e.g., agonism and antagonism): + (estrogen receptor agonism having (i) at least 80% increase in the E2-normalized signal in the AP assay (agonist mode) and (ii) no more than 80% reduction in the E2-normalized signal in the AP assay (antagonist mode))

C[C@@H]1Cc2c([nH]c3ccccc23)[C@@H](c2c[nH]c3ncc(CN4CC5CC5C4)cc23)N1CC(C)(C)F (stereo partly drawn) [Compound I-61, (1R,3R)-1-[5-(3-azabicyclo[3.1.0]hexan-3-ylmethyl)-1H-pyrrolo[2,3-b]pyridin-3-yl]-2-(2-fluoro-2-methyl-propyl)-3-methyl-1,3,4,9-tetrahydropyrido[3,4-b]indole]
Activity (estrogen receptor modulation, e.g., agonism and antagonism): + (estrogen receptor agonism having (i) at least 80% increase in the E2-normalized signal in the AP assay (agonist mode) and (ii) no more than 80% reduction in the E2-normalized signal in the AP assay (antagonist mode))

C[C@@H]1Cc2c([nH]c3ccccc23)[C@@H](c2ccc3[nH]c(CN4CC5(CCC5)C4)cc3c2)N1CC(C)(C)F [Compound I-44, (1R,3R)-1-[2-(2-azaspiro[3.3]heptan-2-ylmethyl)-1H-indol-5-yl]-2-(2-fluoro-2-methyl-propyl)-3-methyl-1,3,4,9-tetrahydropyrido[3,4-b]indole]
Activity (estrogen receptor modulation, e.g., agonism and antagonism): ++ (estrogen receptor antagonism having (i) between 10% and 80% increase in the E2-normalized signal in the AP assay (agonist mode) and (ii) between 10% and 80% reduction in the E2-normalized signal in the AP assay (antagonist mode))

C[C@@H]1Cc2c([nH]c3ccccc23)[C@@H](c2n[nH]c3cc(CN4CC(C#N)C4)ccc23)N1CC(C)(C)F [Compound I-32, 1-[[3-[(1S,3R)-2-(2-fluoro-2-methyl-propyl)-3-methyl-1,3,4,9-tetrahydropyrido[3,4-b]indol-1-yl]-1H-indazol-6-yl]methyl]azetidine-3-carbonitrile]
Activity (estrogen receptor modulation, e.g., agonism and antagonism): + (estrogen receptor agonism having (i) at least 80% increase in the E2-normalized signal in the AP assay (agonist mode) and (ii) no more than 80% reduction in the E2-normalized signal in the AP assay (antagonist mode))

COC1CN(Cc2cc3cc([C@@H]4c5[nH]c6ccccc6c5C[C@@H](C)N4CC(C)(C)F)ccc3[nH]2)C1 [Compound I-94, (1R,3R)-2-(2-fluoro-2-methyl-propyl)-1-[2-[(3-methoxyazetidin-1-yl)methyl]-1H-indol-5-yl]-3-methyl-1,3,4,9-tetrahydropyrido[3,4-b]indole]
Activity (estrogen receptor modulation, e.g., agonism and antagonism): + (estrogen receptor agonism having (i) at least 80% increase in the E2-normalized signal in the AP assay (agonist mode) and (ii) no more than 80% reduction in the E2-normalized signal in the AP assay (antagonist mode))

CC[C@H]1CCN(Cc2cc3sc([C@@H]4c5[nH]c6ccccc6c5C[C@@H](C)N4CC(C)(C)F)cc3[nH]2)C1 [Compound I-68, 5-[[(3S)-3-ethylpyrrolidin-1-yl]methyl]-2-[(1S,3R)-2-(2-fluoro-2-methyl-propyl)-3-methyl-1,3,4,9-tetrahydropyrido[3,4-b]indol-1-yl]-4H-thieno[3,2-b]pyrrole]
Activity (estrogen receptor modulation, e.g., agonism and antagonism): + (estrogen receptor agonism having (i) at least 80% increase in the E2-normalized signal in the AP assay (agonist mode) and (ii) no more than 80% reduction in the E2-normalized signal in the AP assay (antagonist mode))

C[C@@H]1Cc2c([nH]c3ccccc23)[C@@H](c2n[nH]c3cc(CN4CC(CF)C4)ccc23)N1CC(F)(F)CO [Compound I-16, 2,2-difluoro-3-[(1S,3R)-1-[6-[[3-(fluoromethyl)azetidin-1-yl]methyl]-1H-indazol-3-yl]-3-methyl-1,3,4,9-tetrahydropyrido[3,4-b]indol-2-yl]propan-1-ol]
Activity (estrogen receptor modulation, e.g., agonism and antagonism): ++ (estrogen receptor antagonism having (i) between 10% and 80% increase in the E2-normalized signal in the AP assay (agonist mode) and (ii) between 10% and 80% reduction in the E2-normalized signal in the AP assay (antagonist mode))

C[C@@H]1Cc2c([nH]c3ccccc23)[C@@H](c2cc3[nH]c(CN4CC(CF)C4)cc3s2)N1CC(C)(C)F [Compound I-64, 5-[[3-(fluoromethyl)azetidin-1-yl]methyl]-2-[(1S,3R)-2-(2-fluoro-2-methyl-propyl)-3-methyl-1,3,4,9-tetrahydropyrido[3,4-b]indol-1-yl]-4H-thieno[3,2-b]pyrrole]
Activity (estrogen receptor modulation, e.g., agonism and antagonism): ++ (estrogen receptor antagonism having (i) between 10% and 80% increase in the E2-normalized signal in the AP assay (agonist mode) and (ii) between 10% and 80% reduction in the E2-normalized signal in the AP assay (antagonist mode))

C[C@@H]1Cc2c([nH]c3ccccc23)[C@@H](c2n[nH]c3cc(CO)ccc23)N1CC(C)(C)F [Compound I-2, [3-[(1S,3R)-2-(2-fluoro-2-methyl-propyl)-3-methyl-1,3,4,9-tetrahydropyrido[3,4-b]indol-1-yl]-1H-indazol-6-yl]methanol]
Activity (estrogen receptor modulation, e.g., agonism and antagonism): + (estrogen receptor agonism having (i) at least 80% increase in the E2-normalized signal in the AP assay (agonist mode) and (ii) no more than 80% reduction in the E2-normalized signal in the AP assay (antagonist mode))

C[C@@H]1Cc2c([nH]c3ccccc23)[C@@H](c2ccc3c(cnn3C3CN(CCCF)C3)c2)N1CC(F)(F)CO (racemic) [Compound I-106, 2,2-difluoro-3-[rac-(1R,3R)-1-[1-[1-(3-fluoropropyl)azetidin-3-yl]indazol-5-yl]-3-methyl-1,3,4,9-tetrahydropyrido[3,4-b]indol-2-yl]propan-1-ol]
Activity (estrogen receptor modulation, e.g., agonism and antagonism): ++ (estrogen receptor antagonism having (i) between 10% and 80% increase in the E2-normalized signal in the AP assay (agonist mode) and (ii) between 10% and 80% reduction in the E2-normalized signal in the AP assay (antagonist mode))

CC1CN(Cc2ccc3c([C@@H]4c5[nH]c6ccccc6c5C[C@@H](C)N4CC(C)(C)F)c[nH]c3c2)C1 [Compound I-6, (1R,3R)-2-(2-fluoro-2-methyl-propyl)-3-methyl-1-[6-[(3-methylazetidin-1-yl)methyl]-1H-indol-3-yl]-1,3,4,9-tetrahydropyrido[3,4-b]indole]
Activity (estrogen receptor modulation, e.g., agonism and antagonism): ++ (estrogen receptor antagonism having (i) between 10% and 80% increase in the E2-normalized signal in the AP assay (agonist mode) and (ii) between 10% and 80% reduction in the E2-normalized signal in the AP assay (antagonist mode))

C[C@@H]1Cc2c([nH]c3ccccc23)[C@@H](c2ccc3[nH]c(CN4CC(F)(F)C4)cc3c2)N1CC(C)(C)F [Compound I-101, (1R,3R)-1-[2-[(3,3-difluoroazetidin-1-yl)methyl]-1H-indol-5-yl]-2-(2-fluoro-2-methyl-propyl)-3-methyl-1,3,4,9-tetrahydropyrido[3,4-b]indole]
Activity (estrogen receptor modulation, e.g., agonism and antagonism): ++ (estrogen receptor antagonism having (i) between 10% and 80% increase in the E2-normalized signal in the AP assay (agonist mode) and (ii) between 10% and 80% reduction in the E2-normalized signal in the AP assay (antagonist mode))
